From the SangsterLogP compilation

Assay: method code SF-CR, from DOI: 10.1016/0003-9861(68)90547-x, PMID: 5677592

logP	SMILES
2.73	CC(C)(C)c1cc(OC2OC(CO)C(O)C(O)C2O)cc(C(C)(C)C)c1 (stereo unspecified)

Assay: method code SF-AQ, from DOI: 10.1016/0003-9861(68)90547-x, PMID: 5677592

logP	SMILES
0.26	OC[C@H]1O[C@@H](Oc2ccc(Cl)cc2)[C@H](O)[C@@H](O)[C@@H]1O

Assay: method code SF-CR+AS, from DOI: 10.1016/0003-9861(68)90547-x, PMID: 5677592

SMILES	logP
OC[C@H]1O[C@@H](Oc2cccc(C(F)(F)F)c2)[C@H](O)[C@@H](O)[C@@H]1O	0.49
Cc1ccccc1O[C@@H]1O[C@H](CO)C(O)[C@H](O)[C@H]1O (stereo in doubt)	-0.16
Cc1ccc(O[C@@H]2O[C@H](CO)[C@@H](O)[C@H](O)[C@H]2O)cc1	-0.16
OC[C@H]1O[C@@H](Oc2ccc3ccccc3c2)[C@H](O)[C@@H](O)[C@@H]1O	0.76
Cc1cc(C)cc(O[C@@H]2O[C@H](CO)[C@@H](O)[C@H](O)[C@H]2O)c1	0.26
Nc1ccccc1O[C@@H]1O[C@H](CO)[C@@H](O)[C@H](O)[C@H]1O	-1.23
OC[C@H]1O[C@@H](Oc2ccccc2)[C@H](O)[C@@H](O)[C@@H]1O	-0.71
COc1ccccc1O[C@@H]1O[C@H](CO)[C@@H](O)[C@H](O)[C@H]1O	-1.04
OC[C@H]1O[C@@H](OC2CCCCC2)[C@H](O)[C@@H](O)[C@@H]1O	-0.63
CCc1cccc(O[C@@H]2O[C@H](CO)[C@@H](O)[C@H](O)[C@H]2O)c1	0.31
Nc1ccc(O[C@@H]2O[C@H](CO)[C@@H](O)[C@H](O)[C@H]2O)cc1	-2.67
CC(C)(C)c1ccc(O[C@@H]2O[C@H](CO)[C@@H](O)[C@H](O)[C@H]2O)cc1	1.18
OC[C@H]1OC(OCc2ccccc2)[C@H](O)[C@@H](O)[C@@H]1O (stereo partly specified)	-0.7
OC[C@H]1O[C@@H](Oc2ccc(I)cc2)[C@H](O)[C@@H](O)[C@@H]1O	0.75
Cc1cccc(O[C@@H]2O[C@H](CO)[C@@H](O)[C@H](O)[C@H]2O)c1	-0.2

More lines, now with the values ahead:

logP	SMILES
0.27	OC[C@H]1O[C@@H](Oc2ccccc2I)[C@H](O)[C@@H](O)[C@@H]1O
-0.73	COc1ccc(O[C@@H]2O[C@H](CO)[C@@H](O)[C@H](O)[C@H]2O)cc1
-1.35	OC[C@H]1O[C@@H](Oc2ccc(O)cc2)[C@H](O)[C@@H](O)[C@@H]1O
1.01	CC(C)(C)c1cccc(O[C@@H]2O[C@H](CO)[C@@H](O)[C@H](O)[C@H]2O)c1
1.07	Cc1ccc(C(C)C)c(O[C@@H]2O[C@H](CO)[C@@H](O)[C@H](O)[C@H]2O)c1
0.65	CC(C)c1cccc(O[C@@H]2O[C@H](CO)[C@H](O)[C@H](O)[C@H]2O)c1
-0.78	O=[N+]([O-])c1ccccc1O[C@@H]1O[C@H](CO)[C@@H](O)[C@H](O)[C@H]1O
-1.22	OCc1ccccc1O[C@@H]1O[C@H](CO)[C@@H](O)[C@H](O)[C@H]1O
-0.52	COc1cccc(O[C@@H]2O[C@H](CO)[C@@H](O)[C@H](O)[C@H]2O)c1
